Reference: patent US20250230193A1, “CYCLIC COMPOUND HAVING SELECTIVE KRAS INHIBITORY EFFECT ON HRAS AND NRAS” (CHUGAI SEIYAKU KABUSHIKI KAISHA, priority 2022, published 2025)
Where a SMILES comes first, the peptide text is derived from it. Bridges are numbered along the chain shown (N, C = ends). [ ]: non-standard residue; d: D form. The star is where a group is joined. hPhe(3-Cl-4-CF3) = N[C@@H](CCc1ccc(C(F)(F)F)c(Cl)c1)C(=O)O; NPrPhe(4-CF3) = CCCN[C@@H](Cc1ccc(C(F)(F)F)cc1)C(=O)O; NMeGly(cPent) = CN[C@H](C(=O)O)C1CCCC1; Pro(4,4-F2) = O=C(O)[C@@H]1CC(F)(F)CN1; Hyp = O=C(O)[C@@H]1C[C@@H](O)CN1; Gly(cBu) = N[C@H](C(=O)O)C1CCC1; NMeD = CN[C@@H](CC(=O)O)C(=O)O; NMeL = CN[C@@H](CC(C)C)C(=O)O; Morpholide = C1CN(*)CCO1; Ac5c = NC1(C(=O)O)CCCC1; Aze = O=C(O)[C@@H]1CCN1; Ac4c = NC1(C(=O)O)CCC1; NEtG = CCNCC(=O)O; Sar = CNCC(=O)O

Tests used:
[1] = biological target: GDP-bound NRAS wild-type protein (Homo sapiens, UniProt P01111); assay: Binding to NRAS by surface plasmon resonance (SPR), Single Cycle Kinetics; settings: for NRAS/KRAS (ratio of KD value with respect to NRAS to KD value with respect to KRAS): GDP-bound NRAS wild-type vs GDP-bound KRAS wild-type
[2] = biological target: GDP-bound HRAS wild-type protein (Homo sapiens, UniProt P01112); assay: Binding to HRAS by surface plasmon resonance (SPR), Single Cycle Kinetics; settings: for HRAS/KRAS (ratio of KD value with respect to HRAS to KD value with respect to KRAS): GDP-bound HRAS wild-type vs GDP-bound KRAS wild-type
[3] = SPR, GDP-bound wild-type proteins

Sequence of GDP-bound NRAS wild-type protein (P01111 whole entry): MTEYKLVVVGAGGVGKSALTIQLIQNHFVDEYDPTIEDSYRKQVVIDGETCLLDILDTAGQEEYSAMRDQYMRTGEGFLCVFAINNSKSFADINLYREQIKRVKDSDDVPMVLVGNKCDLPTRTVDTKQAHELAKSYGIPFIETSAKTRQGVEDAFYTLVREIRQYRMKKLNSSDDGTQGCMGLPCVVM
Sequence of GDP-bound HRAS wild-type protein (P01112 whole entry): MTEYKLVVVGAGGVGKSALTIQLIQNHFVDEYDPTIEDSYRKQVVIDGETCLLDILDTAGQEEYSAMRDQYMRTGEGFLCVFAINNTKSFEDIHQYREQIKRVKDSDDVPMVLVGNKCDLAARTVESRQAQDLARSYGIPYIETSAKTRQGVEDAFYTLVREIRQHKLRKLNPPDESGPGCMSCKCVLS

SMILES | NRAS/KRAS (ratio of KD value with respect to GDP-bound NRAS wild-type protein to KD value with respect to KRAS) ([1]; SPR) | HRAS/KRAS (ratio of KD value with respect to GDP-bound HRAS wild-type protein to KD value with respect to KRAS) ([2]; SPR) | NRAS/KRAS (ratio of KD for GDP-bound NRAS wild-type to KD for KRAS) ([1]; SPR) | HRAS/KRAS (ratio of KD for GDP-bound HRAS wild-type to KD for KRAS) ([2]; SPR) | further results
CCCN1C(=O)CN(C)C(=O)CN(CC)C(=O)[C@H]([C@@H](C)CC)NC(=O)[C@H](CC(C)C)N(C)C(=O)C[C@@H](C(=O)N(C)C)N(C)C(=O)[C@H](C2CCCC2)N(C)C(=O)C2(CCC2)NC(=O)[C@@H]2CC(F)(F)CN2C(=O)[C@H](CCc2ccc(C(F)(F)F)c(Cl)c2)NC(=O)CN(C)C(=O)[C@@H]1Cc1ccc(C(F)(F)F)cc1 [PP0426] ([NMeL]I[NEtG][Sar][NPrPhe(4-CF3)][Sar][hPhe(3-Cl-4-CF3)][Pro(4,4-F2)][Ac4c][NMeGly(cPent)][NMeD]-NMe2; lactam N-11) | C (A compound having a KD ratio of 0.1 or more and less than 3 is denoted as C) | C (A compound having a KD ratio of 0.1 or more and less than 3 is denoted as C) |  |  | 
CCCN1C(=O)CN(C)C(=O)[C@@H]2CCN2C(=O)[C@H]([C@@H](C)CC)NC(=O)[C@H](CC(C)C)N(C)C(=O)C[C@@H](C(=O)N2CCOCC2)NC(=O)[C@H](C2CCCC2)N(C)C(=O)C2(CCC2)NC(=O)[C@@H]2C[C@@H](OCC)CN2C(=O)[C@H](CCc2ccc(C(F)(F)F)c(Cl)c2)NC(=O)CN(C)C(=O)[C@@H]1Cc1ccc(C(F)(F)F)cc1 [PP0342] ([NMeL]I[Aze][Sar][NPrPhe(4-CF3)][Sar][hPhe(3-Cl-4-CF3)][Hyp](Et)[Ac4c][NMeGly(cPent)]D-Morpholide; lactam N-11) |  |  | B (a compound having 3 or more and less than 10 is denoted as B) | B (a compound having 3 or more and less than 10 is denoted as B) | 
CC[C@H](C)[C@@H]1NC(=O)[C@H](CC(C)C)N(C)C(=O)C[C@@H](C(=O)N(C)C)N(C)C(=O)[C@H](C2CCCC2)N(C)C(=O)C2(CCC2)NC(=O)[C@@H]2CC(F)(F)CN2C(=O)[C@H](CCc2cc(F)c(C(F)(F)F)c(F)c2)NC(=O)CN(C)C(=O)[C@H](Cc2ccc(C(F)(F)F)cc2)N2CCCCC[C@@H](C2=O)N(C)C(=O)CN(C)C1=O [PP0466] | B (a compound having 3 or more and less than 10 is denoted as B) | B (a compound having 3 or more and less than 10 is denoted as B) |  |  | 
CCCN1C(=O)[C@@H]2CCN2C(=O)CN(C)C(=O)[C@H]([C@@H](C)CC)NC(=O)[C@H](CC(C)C)N(C)C(=O)C[C@@H](C(=O)N(C)C)N(C)C(=O)[C@H](C2CCCC2)N(C)C(=O)C2(CCCC2)NC(=O)[C@@H]2CC(F)(F)CN2C(=O)[C@H](CCc2ccc(C(F)(F)F)c(Cl)c2)NC(=O)CN(C)C(=O)[C@@H]1Cc1ccc(C(F)(F)F)cc1 [PP0442] ([NMeL]I[Sar][Aze][NPrPhe(4-CF3)][Sar][hPhe(3-Cl-4-CF3)][Pro(4,4-F2)][Ac5c][NMeGly(cPent)][NMeD]-NMe2; lactam N-11) | C (A compound having a KD ratio of 0.1 or more and less than 3 is denoted as C) | C (A compound having a KD ratio of 0.1 or more and less than 3 is denoted as C) |  |  | 
CCCN1C(=O)CN(C)C(=O)[C@@H]2CCN2C(=O)[C@H]([C@@H](C)CC)NC(=O)[C@H](CC(C)C)N(C)C(=O)C[C@@H](C(=O)N2CCOCC2)N(C)C(=O)[C@H](C2CCCC2)N(C)C(=O)C2(CCCC2)NC(=O)[C@@H]2C[C@@H](OCC)CN2C(=O)[C@H](CCc2ccc(C(F)(F)F)c(Cl)c2)NC(=O)CN(C)C(=O)[C@@H]1Cc1ccc(C(F)(F)F)cc1 [PP0310] ([NMeL]I[Aze][Sar][NPrPhe(4-CF3)][Sar][hPhe(3-Cl-4-CF3)][Hyp](Et)[Ac5c][NMeGly(cPent)][NMeD]-Morpholide; lactam N-11) |  |  | B (a compound having 3 or more and less than 10 is denoted as B) | C (A compound having a KD ratio of 0.1 or more and less than 3 is denoted as C) | 
CCOC[C@H]1C(=O)N[C@@H]([C@@H](C)CC)C(=O)N(C)CC(=O)N(C)[C@H]2C/C=C\CCN(C2=O)[C@@H](CC2CCC(F)(F)CC2)C(=O)N(C)CC(=O)N[C@@H](CCc2ccc(C(F)(F)F)c(Cl)c2)C(=O)N2C[C@@H](C)C[C@H]2C(=O)NC2(CC(C)(C)C2)C(=O)N(C)[C@@H](C(CC)CC)C(=O)N(C)[C@H](C(=O)N(C)C)CC(=O)N1C [PP2475] |  |  |  |  | NRAS/KRAS (ratio of KD value with respect to NRAS to KD value with respect to KRAS) ([1]; SPR): AA (a compound having 20 or more is denoted as AA); HRAS/KRAS (ratio of KD value with respect to HRAS to KD value with respect to KRAS) ([2]; SPR): A (a compound having 10 or more and less than 20 is denoted as A)
CCCN1C(=O)CN(C)C(=O)CN(CC)C(=O)[C@H](C2CCC2)NC(=O)[C@H](CC(C)C)N(C)C(=O)C[C@@H](C(=O)N2CCOCC2)N(C)C(=O)[C@H](C2CCCC2)N(C)C(=O)C2(CCCC2)NC(=O)[C@@H]2CCCN2C(=O)[C@H](CCc2ccc(C(F)(F)F)c(Cl)c2)NC(=O)CN(C)C(=O)[C@@H]1Cc1ccc(C(F)(F)F)cc1 [PP0292] ([NMeL][Gly(cBu)][NEtG][Sar][NPrPhe(4-CF3)][Sar][hPhe(3-Cl-4-CF3)]P[Ac5c][NMeGly(cPent)][NMeD]-Morpholide; lactam N-11) |  |  | B (a compound having 3 or more and less than 10 is denoted as B) | C (A compound having a KD ratio of 0.1 or more and less than 3 is denoted as C) | 
CCO[C@@H]1C[C@H]2C(=O)NC3(CC(C)(C)C3)C(=O)N(C)[C@@H](C3CCCC3)C(=O)N(C)[C@H](C(=O)N(CC)CC)CC(=O)N(C)[C@@H](COC)C(=O)N[C@@H]([C@@H](C)CC)C(=O)N(C)CC(=O)N(C)[C@H]3C/C=C\CCN(C3=O)[C@@H](Cc3ccc(C)cc3)C(=O)N(C)CC(=O)N[C@@H](CCc3ccc(C(F)(F)F)c(Cl)c3)C(=O)N2C1 [PP2400] |  |  |  |  | NRAS/KRAS (ratio of KD value with respect to NRAS to KD value with respect to KRAS) ([1]; SPR): A (a compound having 10 or more and less than 20 is denoted as A); HRAS/KRAS (ratio of KD value with respect to HRAS to KD value with respect to KRAS) ([2]; SPR): A (a compound having 10 or more and less than 20 is denoted as A)
CCO[C@@H]1C[C@H]2C(=O)NC3(CCC3)C(=O)N(C)[C@@H](C(CC)CC)C(=O)N(C)[C@H](C(=O)N3CCCCC3)CC(=O)N(C)[C@H]3CCCC/C=C/c4ccc(cc4)C[C@@H](C(=O)N(C)CC(=O)N[C@@H](CCc4ccc(Cl)c(Cl)c4)C(=O)N2C1)N1CC/C=C\C[C@@H](C1=O)N(C)C(=O)CN(C)C(=O)[C@H]([C@@H](C)CC)NC3=O [PP3046] |  |  |  |  | NRAS/KRAS (ratio of KD value with respect to GDP-bound NRAS wild-type protein to KD value with respect to KRAS) [1, 3]: AA (a compound having 20 or more is denoted as AA); HRAS/KRAS (ratio of KD value with respect to GDP-bound HRAS wild-type protein to KD value with respect to KRAS) [2, 3]: A (a compound having 10 or more and less than 20 is denoted as A)
CCC(CC)[C@H]1C(=O)N(C)[C@H](C(=O)N(C)C)CC(=O)N(C)[C@@H](COC)C(=O)N[C@@H]([C@@H](C)CC)C(=O)N(C2CC2)CC(=O)N(C)[C@H]2C/C=C\CCN(C2=O)[C@@H](CC2CCC(F)(F)CC2)C(=O)N(C)CC(=O)N[C@@H](CCc2ccc(Cl)c(Cl)c2)C(=O)N2C[C@H](OC(C)C)C[C@H]2C(=O)NC2(CC(C)(C)C2)C(=O)N1C [PP2525] |  |  |  |  | NRAS/KRAS (ratio of KD value with respect to GDP-bound NRAS wild-type protein to KD value with respect to KRAS) ([1]; class symbols): AA (a compound having 20 or more is denoted as AA); HRAS/KRAS (ratio of KD value with respect to GDP-bound HRAS wild-type protein to KD value with respect to KRAS) ([2]; class symbols): A (a compound having 10 or more and less than 20 is denoted as A)
